The subject of data set [1] is Rattus norvegicus. As to the kind of experiment: Antiinflammatory activity in rat assessed as inhibition of the carrageenan-induced right hind paw edema at 0.1 mmol/kg. In kind it is functional. More on the design: scale not given: the % may be the effect or the level left.
Data set [2] has as its system LNCaP. As to the kind of experiment: Cytotoxicity against human LNCaP cells. In kind it is functional. The note with it: read-out: ED50 (the source's name).
Data set [3] has as its system KB. In words: Cytotoxicity against human KB cells. The class given is functional. Conditions: read-out: ED50 (the source's name).
Data set [4] can be described thus: Cytotoxicity against human Lu1 cells. The class given is functional. The note with it: read-out: ED50 (the source's name).
In data set [5] the test system is Col2. As to the kind of experiment: Cytotoxicity against human Col2 cells. Conditions: read-out: ED50 (the source's name). The class given is functional.
The target of data set [6] is Chymotrypsinogen A (Bos taurus) (UniProt P00766). As to the kind of experiment: Inactivation of bovine alpha-chymotrypsin assessed as Ki/KI ratio at pH 7.5.
The test system of data set [7] is KB. As to the kind of experiment: Cytotoxicity against human KB cells assessed as inhibition of cell growth incubated for 72 hrs by neutral red dye based colorimetric assay. The class given is functional.
In data set [8] the target is Cannabinoid receptor 2 (Homo sapiens, UniProt P34972). In words: Binding affinity to CB2 (unknown origin).
Data set [9] deals with Plasmodium falciparum. As to the kind of experiment: Antimalarial activity against chloroquine-resistant Plasmodium falciparum Dd2. In kind it is functional, organism-based.
For data set [10], the system named is Plasmodium falciparum. As to the kind of experiment: Antimalarial activity against chloroquine-susceptible Plasmodium falciparum 3D7. The class given is functional, organism-based.
Data set [11] in a line: Inhibition of ECE (unknown origin). More on the design: species or system Homo sapiens.
Data set [12] in a line: Therapeutic index, ratio of IC50 for human H9 cells to EC50 for HIV-1 3B in human H9 cells. The class given is toxicity, cell-based. The note with it: read-out: Ratio IC50/EC50.
Data set [13] deals with Human immunodeficiency virus 1. In words: Antiviral activity against HIV-1 3B in human H9 cells incubated for 4 days by ELISA. In kind it is functional, organism-based. Conditions: Human immunodeficiency virus 1, 3B, H9, 96 h.
Data set [14] is described as follows: Binding affinity to bovine 5-HT1B. More on the design: species or system Bos taurus.
The nature of data set [15]: Selectivity ratio of Ki for bovine 5-HT1B to rat 5-HT1B.
Data set [16] deals with 5-hydroxytryptamine receptor 1B (Rattus norvegicus, UniProt P28564). As to the kind of experiment: Binding affinity to rat 5-HT1B.
In data set [17] the target is Chymotrypsinogen A (Bos taurus) (UniProt P00766). In words: Inactivation of bovine alpha-chymotrypsin assessed as Ki/KI ratio.
Data set [18] deals with Acetylcholinesterase (Homo sapiens, UniProt P22303). As to the kind of experiment: Inhibition of recombinant human AChE assessed as hydrolysis of acetylthiocholine by Ellman's method.
For data set [19], the system named is Selenastrum capricornutum. In words: Algicidal activity against Selenastrum capricornutum. In kind it is functional, organism-based.
Data set [20] concerns Planktothrix perornata. In words: Algicidal activity against Planktothrix perornata. The class given is functional, organism-based.
In data set [21] the test system is Leishmania major. As to the kind of experiment: Antileishmanial activity against Leishmania major promastigotes assessed as inhibition of [3H]thymidine uptake preincubated for 2 hrs followed by addition of [3H]thymidine measured after 18 hrs by scintillation counting. The class given is functional, organism-based.
For data set [22], the target named is T1, Acetylcholinesterase (Electrophorus electricus, UniProt O42275). As to the kind of experiment: Inhibition of electric eel AChE (type VI-S) using acetylthiocholine iodide as substrate preincubated for 15 mins followed by substrate addition by Ellman's method.
Data set [23] concerns the target T1, Acetylcholinesterase. In words: Competitive inhibition of electric eel acetyl cholinesterase measured for 3 mins by Ellman's method.

≈ marks a conversion by molar mass, not a printed value. Where only a bound is given, the exact number is not on record here.

T1 sequence (O42275 whole entry): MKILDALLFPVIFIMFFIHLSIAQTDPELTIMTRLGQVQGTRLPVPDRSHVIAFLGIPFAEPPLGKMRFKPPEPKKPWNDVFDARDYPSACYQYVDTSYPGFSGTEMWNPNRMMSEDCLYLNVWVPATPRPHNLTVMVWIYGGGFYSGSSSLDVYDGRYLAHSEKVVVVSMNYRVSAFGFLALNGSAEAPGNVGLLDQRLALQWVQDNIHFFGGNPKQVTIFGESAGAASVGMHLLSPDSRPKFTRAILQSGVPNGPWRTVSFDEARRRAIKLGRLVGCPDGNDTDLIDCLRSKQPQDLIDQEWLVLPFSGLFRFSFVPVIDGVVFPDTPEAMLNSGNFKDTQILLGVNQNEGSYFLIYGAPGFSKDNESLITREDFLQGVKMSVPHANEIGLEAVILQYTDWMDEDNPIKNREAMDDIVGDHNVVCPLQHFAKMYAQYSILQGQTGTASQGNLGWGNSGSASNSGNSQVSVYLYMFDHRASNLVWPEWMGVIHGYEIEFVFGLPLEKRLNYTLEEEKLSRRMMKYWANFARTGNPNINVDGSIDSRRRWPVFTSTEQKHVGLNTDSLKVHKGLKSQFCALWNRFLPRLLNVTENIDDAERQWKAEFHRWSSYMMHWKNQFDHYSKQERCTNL
Chain of Acetylcholinesterase (Homo sapiens, UniProt P22303) (P22303 whole entry): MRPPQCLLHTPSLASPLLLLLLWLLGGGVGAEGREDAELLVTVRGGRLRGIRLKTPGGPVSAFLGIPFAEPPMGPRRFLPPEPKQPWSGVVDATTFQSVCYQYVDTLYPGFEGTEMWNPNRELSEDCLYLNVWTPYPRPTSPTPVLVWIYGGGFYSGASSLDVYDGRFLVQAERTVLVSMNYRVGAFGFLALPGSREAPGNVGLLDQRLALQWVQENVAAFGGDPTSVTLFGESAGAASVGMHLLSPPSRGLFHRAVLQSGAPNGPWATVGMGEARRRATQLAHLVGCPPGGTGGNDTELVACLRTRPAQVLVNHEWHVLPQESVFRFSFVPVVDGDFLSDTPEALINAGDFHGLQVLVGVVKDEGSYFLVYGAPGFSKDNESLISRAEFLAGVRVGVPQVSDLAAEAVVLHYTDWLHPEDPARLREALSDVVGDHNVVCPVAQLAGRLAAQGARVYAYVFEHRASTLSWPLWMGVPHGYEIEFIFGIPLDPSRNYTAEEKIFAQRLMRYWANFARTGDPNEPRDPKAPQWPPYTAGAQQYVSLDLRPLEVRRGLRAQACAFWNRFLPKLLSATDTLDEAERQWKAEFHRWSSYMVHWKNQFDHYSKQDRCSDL
Chain of Cannabinoid receptor 2 (P34972 whole entry): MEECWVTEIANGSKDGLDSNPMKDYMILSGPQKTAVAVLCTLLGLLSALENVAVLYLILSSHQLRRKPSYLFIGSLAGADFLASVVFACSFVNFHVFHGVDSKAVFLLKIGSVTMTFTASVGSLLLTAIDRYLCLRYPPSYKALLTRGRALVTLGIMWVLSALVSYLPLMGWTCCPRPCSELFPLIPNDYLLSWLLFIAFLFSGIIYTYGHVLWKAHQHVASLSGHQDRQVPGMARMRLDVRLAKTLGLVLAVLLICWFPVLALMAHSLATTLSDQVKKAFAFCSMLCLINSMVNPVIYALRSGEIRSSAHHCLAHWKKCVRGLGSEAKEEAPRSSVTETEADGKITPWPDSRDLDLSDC
Chain of 5-hydroxytryptamine receptor 1B (P28564 whole entry): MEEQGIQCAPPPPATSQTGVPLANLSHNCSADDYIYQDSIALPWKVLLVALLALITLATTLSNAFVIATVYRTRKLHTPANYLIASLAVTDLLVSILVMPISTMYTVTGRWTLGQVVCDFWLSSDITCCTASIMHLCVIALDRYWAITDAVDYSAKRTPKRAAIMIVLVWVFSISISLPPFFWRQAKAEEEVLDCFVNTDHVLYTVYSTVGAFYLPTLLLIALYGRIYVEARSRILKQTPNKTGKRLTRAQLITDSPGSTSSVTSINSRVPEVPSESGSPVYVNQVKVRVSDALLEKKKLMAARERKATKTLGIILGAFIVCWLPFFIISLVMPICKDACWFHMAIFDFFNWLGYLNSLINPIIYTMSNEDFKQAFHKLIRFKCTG

`Cc1cc(=O)oc2c3c(ccc12)OC(C)(c1ccccc1)O3` (stereo unspecified): the Activity in data set [1] was found to be 55%.
As for `CC(C)=CCc1c(O)c(C(=O)CC(C)CO)c2oc(=O)cc(-c3ccccc3)c2c1O` (stereo unspecified), the EC50 in data set [2], in data set [3], in data set [4] and in data set [5] was 11.1 µg/mL (≈ 26.3 µM) throughout.
Turning to `CCOC(=O)C1(CC)Oc2ccc3c(C)cc(=O)oc3c2O1` (stereo unspecified), the Activity in data set [1] amounted to 55%.
In the case of `O=C(Oc1cccc(Cl)c1)c1cc2cc(CCl)ccc2oc1=O`, the Ratio in data set [6] was 7.6 10^5/M/s.
Take `C=C(C)C(O)Cc1c(O)c(C(=O)C(C)CC)c(O)c2c(CCC)cc(=O)oc12` (stereo unspecified): the IC50 in data set [7] was 4 µg/mL (≈ 10.3 µM).
`CCCCCCC(C)(C)c1cc(O)c2c(c1)oc(=O)c1ccc(OC)cc12` came in with a Ki in [8] of 6.7 nM.
For `COc1ccc2c(c1)c(CC(=O)O)c(C)n2C(=O)c1ccc(Cl)cc1` [INDOMETHACIN], in data set [1], the Activity is given as 47%.
For `CC(C)CC(=O)c1c(O)cc(O)c2c(-c3ccccc3)cc(=O)oc12` [ISODISPAR B], in data set [7], the IC50 amounted to 4 µg/mL (≈ 11.8 µM).
For the compound `Cc1cccc2oc(=O)c3c(c12)O[C@H](C)[C@@]3(C)CC(=O)C1OC1(C)C` (stereo partly specified), the half-maximal inhibitory concentration (IC50) in data set [9] and in data set [10] was above 50000 nM each time.
As to `CC1(C)C=Cc2c(ccc3c2O[C@H](O)[C@H]2c4ccc(O)cc4O[C@@H]32)O1`, in data set [11], the IC50 was determined as 9000 nM.
With `CC(C)=CCC/C(C)=C/CC[C@@]1(C)C=Cc2c(cc(C)c(C(=O)O)c2O)O1` [DAURICHROMENIC ACID], the selectivity ratio in [12] is 3.71. This compound also yielded an EC50 in data set [13] of 5.67 µg/mL (≈ 15.3 µM).
In the case of `CCC(C)c1cc(=O)oc2c(C(=O)CC(C)CO)c(O)c(CC=C(C)C)c(O)c12` (stereo unspecified), the EC50 in data set [2], in data set [3], in data set [4] and in [5] was 11.1 µg/mL (≈ 27.6 µM) in each case.
With `C1=C(CN2CCOCC2)COc2c1cccc2OCC1COCCN1` (stereo unspecified), the figures for the Ki in data set [14] and in data set [16] were 630 nM and 47 nM, respectively. In addition, the Ratio Ki in data set [15] was 13.
`O=C(Oc1cccc(Cl)n1)c1cc2cc(CCl)ccc2oc1=O`: the Ratio in data set [17] is 1.1 10^5/M/s.
As for `C=C(C)C(O)Cc1c(O)c(C(=O)C(C)C)c(O)c2c(-c3ccccc3)cc(=O)oc12` (stereo unspecified), the concentration for half-maximal inhibition (IC50) in [7] stood at 4 µg/mL (≈ 9.79 µM).
Take `CCN(Cc1ccccc1)Cc1ccc(-c2cc3cc(OC)c(OC)cc3oc2=O)cc1`: the Ki in [18] was 10.5 nM.
On to `COc1cc2cc(-c3ccc(CN(CCO)Cc4ccccc4)cc3)c(=O)oc2cc1OC`, for which the Ki in data set [18] worked out at 10.5 nM.
Still for that read-out and setting: in the case of `COc1cc2cc(-c3ccc(CN(C)Cc4ccccc4)cc3)c(=O)oc2cc1OC` it was 44.5 nM; in that of `COc1cc2cc(-c3ccc(C[N+](C)(C)Cc4ccccc4)cc3)c(=O)oc2cc1OC`, 10.5 nM.
On to `CC(C)CC(=O)N(C)CCc1ccc2c(c1)C=CC(C)(C)O2`, for which the Activity in data set [19] was 100 µM; in data set [20], 10 µM. The figures for the 50% inhibitory concentration (IC50) in [19] (Selenastrum capricornutum) and in [20] (Planktothrix perornata) were 12600 nM and 2300 nM, respectively.
As to `Cc1cccc2oc(=O)c3c(c12)O[C@@H](C)[C@@]3(C)CC(=O)C1OC1(C)C` (stereo partly specified), the half-maximal inhibitory concentration (IC50) was above 50000 nM in [9], above 50000 nM in data set [10] and 13400 nM in data set [21].
`CCCCCCC(C)(C)c1cc(O)c2c(c1)oc(=O)c1ccc(C)cc12`: in data set [8], the affinity, expressed as Ki, was 3.1 nM.
Consider `C=C(C)C(O)Cc1c(O)c(C(=O)C(C)CC)c(O)c2c(-c3ccccc3)cc(=O)oc12` (stereo unspecified), for which the IC50 in data set [7] worked out at 4 µg/mL (≈ 9.47 µM).
In data set [22], `CC(C)=CCCC1(C)C=Cc2c(cc(O)c3c(=O)c4cccc(O)c4oc23)O1` (stereo unspecified) came in with an IC50 of 8470 nM and an inhibitory constant (Ki) of 3430 nM. The compound further yielded a Ki in data set [23] of 1900 nM.

The values are drawn from ChEMBL document CHEMBL5252530, “Biological importance of structurally diversified chromenes” (Eur J Med Chem, 2016).
